Tests used:
[1] = test system: HCV replicons (Huh-7 luc/neo cells, NS3-NS5B regions of HCV type 1b); assay: Replicon assay: inhibition of HCV RNA replication in Huh-Luc cells (luciferase read-out); format: cell-based; details: Hepatitis C virus, Huh-7, 72 h, HCV type 1b replicon, luciferase activity after three days
Description: The in vitro antiviral activity against HCV of the compounds of formula (I) was tested in a cellular HCV replicon system based on Lohmann et al. (1999) Science 285:110-113, with the further modifications described by Krieger et al. (2001) Journal of Virology 75: 4614-4624 (incorporated herein by reference), which is further exemplified in the examples section. This model, while not a complete infection model for HCV, is widely accepted as the most robust and efficient model of autonomous HCV RNA replication currently available. […] It will be appreciated that it is important to distinguish between compounds that specifically interfere with HCV functions from those that exert cytotoxic or cytostatic effects in the HCV replicon model, and as a consequence cause a decrease in HCV RNA or linked reporter enzyme concentration. Assays are known in the field for the evaluation of cellular cytotoxicity based for example on the activity of mitochondrial enzymes using fluorogenic redox dyes such as resazurin. Furthermore, cellular counter screens exist for the evaluation of non-selective inhibition of linked reporter gene activity, such as firefly luciferase. Appropriate cell types can be equipped by stable transfection with a luciferase reporter gene whose expression is dependent on a constitutively active gene promoter, and such cells can be used as a counter-screen to eliminate non-selective inhibitors.
The compounds of formula (I) were examined for activity in the inhibition of HCV RNA replication in a cellular assay. […] The cellular assay was based on a bicistronic expression construct, as described by Lohmann et al. (1999) Science vol. 285 pp. 110-113 with modifications described by Krieger et al. (2001) Journal of Virology 75: 4614-4624, in a multi-target screening strategy. In essence, the method was as follows.
The assay utilized the stably transfected cell line Huh-7 luc/neo (hereafter referred to as Huh-Luc). This cell line harbors an RNA encoding a bicistronic expression construct comprising the wild type NS3-NS5B regions of HCV type 1b translated from an Internal Ribosome Entry Site (IRES) from encephalomyocarditis virus (EMCV), preceded by a reporter portion (FfL-luciferase), and a selectable marker portion (neo^R, neomycine phosphotransferase). The construct is bordered by 5′ and 3′ NTRs (non-translated regions) from HCV type 1b. Continued culture of the replicon cells in the presence of G418 (neo^R) is dependent on the replication of the HCV RNA. The stably transfected replicon cells that express HCV RNA, which replicates autonomously and to high levels, encoding inter alia luciferase, are used for screening the antiviral compounds.
The replicon cells were plated in 384 well plates in the presence of the test and control compounds which were added in various concentrations. Following an incubation of three days, HCV replication was measured by assaying luciferase activity (using standard luciferase assay substrates and reagents and a Perkin Elmer ViewLux™ ultraHTS microplate imager). Replicon cells in the control cultures have high luciferase expression in the absence of any inhibitor. The inhibitory activity of the compound on luciferase activity was monitored on the Huh-Luc cells, enabling a dose-response curve for each test compound. EC50 values were then calculated, which value represents the amount of the compound required to decrease by 50% the level of detected luciferase activity, or more specifically, the ability of the genetically linked HCV replicon RNA to replicate.

[2] = target: full-length hepatitis C NS3 protease enzyme (HCV NS3/4A protease complexes) (Hepatitis C virus genotype 1a, UniProt P27958); assay: Inhibition assay (enzymatic assay) of HCV NS3/4A protease; format: biochemical; details: enzyme 1 nM, 25 μM NS4A cofactor, 0.5 μM depsipeptide substrate, 30° C., competitive model
Sequence of full-length hepatitis C NS3 protease enzyme (HCV NS3/4A protease complexes) (P27958 1027-1657, one chain of several): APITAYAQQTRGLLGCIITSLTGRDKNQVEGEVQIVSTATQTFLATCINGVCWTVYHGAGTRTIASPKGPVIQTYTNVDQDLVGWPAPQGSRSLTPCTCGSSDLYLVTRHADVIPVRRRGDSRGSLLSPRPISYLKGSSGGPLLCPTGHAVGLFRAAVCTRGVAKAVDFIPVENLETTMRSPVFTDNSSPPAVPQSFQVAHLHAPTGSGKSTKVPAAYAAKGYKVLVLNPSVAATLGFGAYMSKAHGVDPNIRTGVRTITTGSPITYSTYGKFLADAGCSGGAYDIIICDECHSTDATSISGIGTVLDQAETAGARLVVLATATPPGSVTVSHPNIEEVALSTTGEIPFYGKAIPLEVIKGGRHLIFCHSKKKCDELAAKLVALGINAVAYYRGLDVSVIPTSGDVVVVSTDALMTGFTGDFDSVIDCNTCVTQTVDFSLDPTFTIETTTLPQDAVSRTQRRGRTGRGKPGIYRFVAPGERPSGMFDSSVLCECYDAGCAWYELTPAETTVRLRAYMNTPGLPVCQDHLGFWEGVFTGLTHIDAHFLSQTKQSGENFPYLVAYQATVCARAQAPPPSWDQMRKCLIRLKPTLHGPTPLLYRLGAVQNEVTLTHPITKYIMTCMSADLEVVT
Description: The aim of this in vitro assay is to measure the inhibition of HCV NS3/4A protease complexes by the compounds of the present invention. This assay provides an indication of how effective compounds of the present invention would be in inhibiting HCV NS3/4A proteolytic activity.
The inhibition of full-length hepatitis C NS3 protease enzyme was measured essentially as described in Poliakov, 2002 Prot Expression & Purification 25 363 371. Briefly, the hydrolysis of a depsipeptide substrate, Ac-DED(Edans)EEAbuψ[COO]ASK(Dabcyl)-NH2 (AnaSpec, San José, USA), was measured spectrofluorometrically in the presence of a peptide cofactor, KKGSVVIVGRIVLSGK (Åke Engström, Department of Medical Biochemistry and Microbiology, Uppsala University, Sweden). [Landro, 1997 #Biochem 36 9340-9348]. The enzyme (1 nM) was incubated in 50 mM HEPES, pH 7.5, 10 mM DTT, 40% glycerol, 0.1% n-octyl-D-glucoside, with 25 μM NS4A cofactor and inhibitor at 30° C. for 10 min, whereupon the reaction was initiated by addition of 0.5 μM substrate. Inhibitors were dissolved in DMSO, sonicated for 30 sec. and vortexed. The solutions were stored at −20° C. between measurements.
The final concentration of DMSO in the assay sample was adjusted to 3.3%. The rate of hydrolysis was corrected for inner filter effects according to published procedures. [Liu, 1999 Analytical Biochemistry 267 331-335]. Ki values were estimated by non-linear regression analysis (GraFit, Erithacus Software, Staines, MX, UK), using a model for competitive inhibition and a fixed value for Km (0.15 μM). A minimum of two replicates was performed for all measurements.

SMILES	EC50 [1]	Ki [2]
COc1ccc2c(O[C@@H]3C[C@H]4C(=O)N[C@]5(C(=O)NS(=O)(=O)C6CC6)C[C@H]5/C=C\CCCCCNC(=O)N4C3)nc(-c3ccccc3)nc2c1C [Compound 174, Cyclopropanesulfonic acid [18-(7-methoxy-8-methyl-2-phenyl-quinazolin-4-yloxy)-2,15-dioxo-3,14,16-triaza-tricyclo[14.3.0.0*4,6*]nonadec-7-ene-4-carbonyl]-amide]	0.5 to 199 nM	0.1 to 4.9 nM
COc1ccc2c(O[C@@H]3C[C@H]4C(=O)N[C@]5(C(=O)NS(=O)(=O)C6CC6)C[C@H]5/C=C\CCCCN(C)C(=O)N4C3)nc(-c3cccc(C)n3)nc2c1C [Compound 119, Cyclopropanesulfonic acid {17-[7-methoxy-8-methyl-2-(6-methyl-pyridin-2-yl)-quinazolin-4-yloxy]-13-methyl-2,14-dioxo-3,13,15-triazatricyclo[13.3.0.0*4,6*]octadec-7-ene-4-carbonyl}-amide]	0.5 to 199 nM	0.1 to 4.9 nM
COc1cc2nc(-c3ccccc3)nc(O[C@@H]3C[C@H]4C(=O)N[C@]5(C(=O)NS(=O)(=O)C6CC6)C[C@H]5/C=C\CCCCN(C)C(=O)N4C3)c2cc1C [Compound 121, Cyclopropanesulfonic acid [17-(7-methoxy-6-methyl-2-phenyl-quinazolin-4-yloxy)-13-methyl-2,14-dioxo-3,13,15-triaza-tricyclo[13.3.0.0*4,6*]octadec-7-ene-4-carbonyl]-amide]	0.5 to 199 nM	0.1 to 4.9 nM
CN1CCCC/C=C\[C@@H]2C[C@@]2(C(=O)NS(=O)(=O)C2CC2)NC(=O)[C@@H]2C[C@@H](Oc3nc(-c4ccc(C#N)cc4)nc4ccccc34)C[C@H]2C1=O [Compound 73, Cyclopropanesulfonic acid {17-[2-(4-cyano-phenyl)-quinazolin-4-yloxy]-13-methyl-2,14-dioxo-3,13-diaza-tricyclo[13.3.0.0*4,6*]octadec-7-ene-4-carbonyl}-amide]	> 10000 nM	100 to 1000 nM
COc1ccc2c(O[C@@H]3C[C@H]4C(=O)N[C@]5(C(=O)NS(=O)(=O)C6CC6)C[C@H]5/C=C\CCCCN(C)C(=O)[C@@H]4C3)nc(-c3cc(F)cc(F)c3)nc2c1C [Compound 170, Cyclopropanesulfonic acid {17-[2-(3,5-difluoro-phenyl)-7-methoxy-8-methyl-quinazolin-4-yloxy]-13-methyl-2,14-dioxo-3,13-diaza-tricyclo[13.3.0.0*4,6*]octadec-7-ene-4-carbonyl}-amide]	0.5 to 199 nM	5 to 99.9 nM
COc1ccc2c(O[C@@H]3C[C@H]4C(=O)N[C@]5(C(=O)NS(=O)(=O)C(C)C)C[C@H]5/C=C\CCCCN(C)C(=O)[C@@H]4C3)nc(-c3cccc(F)c3)nc2c1C [Compound 162, Propane-2-sulfonic acid {17-[2-(3-fluoro-phenyl)-7-methoxy-8-methyl-quinazolin-4-yloxy]-13-methyl-2,14-dioxo-3,13-diazatricyclo[13.3.0.0*4,6*]octadec-7-ene-4-carbonyl}-amide]	200 to 990 nM	0.1 to 4.9 nM
COc1ccc2c(O[C@@H]3C[C@H]4C(=O)N[C@]5(C(=O)NS(=O)(=O)C6CC6)C[C@H]5/C=C\CCCCN(C)C(=O)[C@@H]4C3)nc(-c3nc(C(C)C)cs3)nc2c1 [Compound 45, Cyclopropanesulfonic acid {17-[2-(4-isopropyl-thiazol-2-yl)-7-methoxy-quinazolin-4-yloxy]-13-methyl-2,14-dioxo-3,13-diaza-tricyclo[13.3.0.0*4,6*]octadec-7-ene-4-carbonyl}-amide]	0.5 to 199 nM	0.1 to 4.9 nM
COc1ccc2c(O[C@@H]3C[C@H]4C(=O)N[C@]5(C(=O)NS(=O)(=O)C6(C)CC6)C[C@H]5/C=C\CCCCN(C)C(=O)[C@@H]4C3)nc(-c3cccc(F)c3)nc2c1C [Compound 161, 1-Methyl-cyclopropanesulfonic acid {17-[2-(3-fluoro-phenyl)-7-methoxy-8-methyl-quinazolin-4-yloxy]-13-methyl-2,14-dioxo-3,13-diazatricyclo[13.3.0.0*4,6*]octadec-7-ene-4-carbonyl}-amide]	0.5 to 199 nM	0.1 to 4.9 nM
CN1CCN(c2nc(O[C@@H]3C[C@H]4C(=O)N[C@]5(C(=O)NS(=O)(=O)C6CC6)C[C@H]5/C=C\CCCCN(C)C(=O)[C@@H]4C3)c3ccccc3n2)CC1 [Compound 34, Cyclopropanesulfonic acid {13-methyl-17-[2-(4-methyl-piperazin-1-yl)quinazolin-4-yloxy]-2,14-dioxo-3,13-diaza-tricyclo[13.3.0.0*4,6*]octadec-7-ene4-carbonyl}-amide]	200 to 990 nM	5 to 99.9 nM
COc1ccc(-c2nc(O[C@@H]3C[C@H]4C(=O)N[C@]5(C(=O)NS(=O)(=O)C6(C)CC6)C[C@H]5/C=C\CCCCN(C)C(=O)N4C3)c3ccc(OC)c(C)c3n2)cc1 [Compound 132, 1-Methyl-cyclopropanesulfonic acid {17-[7-methoxy-2-(4-methoxy-phenyl)-8-methyl-quinazolin-4-yloxy]-13-methyl-2,14-dioxo-3,13,15-triaza-tricyclo[13.3.0.0*4,6*]octadec-7-ene-4-carbonyl}-amide]	0.5 to 199 nM	0.1 to 4.9 nM
CC(C)c1csc(-c2nc(O[C@@H]3C[C@H]4C(=O)N[C@]5(C(=O)NS(=O)(=O)C6CC6)C[C@H]5/C=C\CCCCN(C)C(=O)[C@@H]4C3)c3ccccc3n2)n1 [Compound 44, Cyclopropanesulfonic acid {17-[2-(4-isopropyl-thiazol-2-yl)-quinazolin-4-yloxy-]-13-methyl-2,14-dioxo-3,13-diaza-tricyclo[13.3.0.0*4,6*]octadec-7-ene-4-carbonyl}-amide]	0.5 to 199 nM	0.1 to 4.9 nM
COc1ccc2c(O[C@@H]3C[C@H]4C(=O)N[C@]5(C(=O)NS(=O)(=O)C6CC6)C[C@H]5/C=C\CCCCN(C)C(=O)N4C3)nc(-c3ccccc3)nc2c1 [Compound 53, Cyclopropanesulfonic acid [17-(7-methoxy-2-phenyl-quinazolin-4-yloxy)-13-methyl-2,14-dioxo-3,13,15-triaza-tricyclo[13.3.0.0*4,6*]octadec-7-ene-4-carbonyl]-amide]	0.5 to 199 nM	0.1 to 4.9 nM
COc1ccc2c(O[C@@H]3C[C@H]4C(=O)N[C@]5(C(=O)NS(=O)(=O)C6CC6)C[C@H]5/C=C\CCCCN(C)C(=O)[C@@H]4C3)nc(-n3ccc(C(C)C)n3)nc2c1C [Compound 147, N-[17-[2-(3-isopropylpyrazol-1-yl)-7-methoxy-8-methylquinazolin-4-yloxy]-13-methyl-2,14-dioxo-3,13-diazatricyclo[13.3.0.0^4,6]octadec-7-ene-4-carbonyl](cyclo-propyl)sulfonamide]	0.5 to 199 nM	0.1 to 4.9 nM
